This passage reports Ki results from patent US7482468B2, “Imidazole and benzimidazole derivatives useful as histamine H3 antagonists” (Schering Corporation, priority 2005, dated 2009).

The assay concerns the target H3 receptors (Cavia porcellus, UniProt Q9JI35). The assay can be described thus: biochemical. The method, then:
General Procedure for H3-Receptor Binding Assay
The source of the H3 receptors in this experiment was guinea pig brain. The animals weighed 400-600 g. The brain tissue was homogenized with a solution of 50 mM Tris, pH 7.5. The final concentration of tissue in the homogenization buffer was 10% w/v. The homogenates were centrifuged at 1,000×g for 10 min. in order to remove clumps of tissue and debris. The resulting supernatants were then centrifuged at 50,000×g for 20 min. in order to sediment the membranes, which were next washed three times in homogenization buffer (50,000×g for 20 min. each). The membranes were frozen and stored at −70° C. until needed.
All compounds to be tested were dissolved in DMSO and then diluted into the binding buffer (50 mM Tris, pH 7.5) such that the final concentration was 2 μg/ml with 0.1% DMSO. Membranes were then added (400 μg of protein) to the reaction tubes. The reaction was started by the addition of 3 nM [^3H]R-α-methyl histamine (8.8 Ci/mmol) or 3 nM [^3H]N^α-methyl histamine (80 Ci/mmol) and continued under incubation at 30° C. for 30 min. Bound ligand was separated from unbound ligand by filtration, and the amount of radioactive ligand bound to the membranes was quantitated by liquid scintillation spectrometry.

H3 receptors, sequence (Q9JI35 whole entry): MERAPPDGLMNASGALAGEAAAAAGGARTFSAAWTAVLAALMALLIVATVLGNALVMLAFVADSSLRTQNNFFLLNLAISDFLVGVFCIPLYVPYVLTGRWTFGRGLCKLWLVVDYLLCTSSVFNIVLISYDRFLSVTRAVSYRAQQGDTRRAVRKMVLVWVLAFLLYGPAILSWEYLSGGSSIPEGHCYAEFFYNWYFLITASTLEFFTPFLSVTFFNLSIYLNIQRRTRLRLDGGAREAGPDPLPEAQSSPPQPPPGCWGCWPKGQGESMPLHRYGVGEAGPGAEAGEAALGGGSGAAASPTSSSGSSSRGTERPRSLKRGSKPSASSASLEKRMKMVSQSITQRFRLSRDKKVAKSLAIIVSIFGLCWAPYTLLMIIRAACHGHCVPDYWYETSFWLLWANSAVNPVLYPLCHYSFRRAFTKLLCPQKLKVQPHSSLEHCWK

Usually Ki stands for a dissociation constant, usually derived from enzyme kinetics or from competition with a known ligand. Compound `Fc1ccc2c(c1)nc(-c1ccccn1)n2-c1ccc(OCCCN2CCCCC2)cc1` [Example 1EE] returned a Ki of 1 nM.
